In patent US20240116845A1, “INDENE COMPOUNDS, PHARMACEUTICAL COMPOSITIONS THEREOF, AND THEIR THERAPEUTIC APPLICATIONS” (NucMito Pharmaceuticals Co., Ltd., priority 2021, published 2024):

Assays:
Type in all cases: cell-based
[1] = tested on: B16F10 (malignant melanoma); assay: Antiproliferative activity, CCK-8 cell viability; conditions: Mus musculus, B16-F10, 72 h, read-out: Inhibition of Cancerous Cells, B16F10; for inhibition at 3.3 µM: compound concentration of 3.3 μM; for inhibition at 10 µM: compound concentration of 10 μM; for inhibition at 30 µM: compound concentration of 30 μM
How it was run: (§1)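 Cells in DMEM with 10% FBS were treated with compound at 3.3, 10 or 30 μM for 72 h at 37°C. Viability was read by CCK-8 absorbance at 450 nm and expressed relative to DMSO-treated cells. Growth inhibition was binned as ≥50%, 30–50% or <30%.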

HepG2 (liver cancer) = assay: Antiproliferative activity, CCK-8 cell viability; conditions: Homo sapiens, 72 h, read-out: Inhibition of Cancerous Cells, HepG2; for inhibition at 3.3 µM: compound concentration of 3.3 μM; for inhibition at 10 µM: compound concentration of 10 μM; for inhibition at 30 µM: compound concentration of 30 μM
How it was run: as §1

[2] = tested on: A431 (epidermoid carcinoma); assay: Antiproliferative activity, CCK-8 cell viability; conditions: Homo sapiens, A-431, 72 h, read-out: Inhibition of Cancerous Cells, A431; for inhibition at 3.3 µM: compound concentration of 3.3 μM; for inhibition at 10 µM: compound concentration of 10 μM; for inhibition at 30 µM: compound concentration of 30 μM
How it was run: as §1

SW480 (colon cancer) = assay: Antiproliferative activity, CCK-8 cell viability; conditions: Homo sapiens, 72 h, read-out: Inhibition of Cancerous Cells, SW480; for inhibition at 3.3 µM: compound concentration of 3.3 μM; for inhibition at 10 µM: compound concentration of 10 μM; for inhibition at 30 µM: compound concentration of 30 μM
How it was run: as §1

HeLa (cervical cancer) = assay: Antiproliferative activity, CCK-8 cell viability; conditions: Homo sapiens, 72 h, read-out: Inhibition of Cancerous Cells, HELA; for inhibition at 3.3 µM: compound concentration of 3.3 μM; for inhibition at 10 µM: compound concentration of 10 μM; for inhibition at 30 µM: compound concentration of 30 μM
[3] = tested on: MDA-MB-231 (breast cancer); assay: Antiproliferative activity, CCK-8 cell viability; conditions: Homo sapiens, 72 h, read-out: Inhibition of Cancerous Cells, MDA-MB-231; for inhibition at 3.3 µM: compound concentration of 3.3 μM; for inhibition at 10 µM: compound concentration of 10 μM; for inhibition at 30 µM: compound concentration of 30 μM
How it was run: as §1

[4] = tested on: A549 (lung adenocarcinoma); assay: Antiproliferative activity, CCK-8 cell viability; conditions: Homo sapiens, 72 h, read-out: Inhibition of Cancerous Cells, A549; for inhibition at 3.3 µM: compound concentration of 3.3 μM; for inhibition at 10 µM: compound concentration of 10 μM; for inhibition at 30 µM: compound concentration of 30 μM
[5] = tested on: alpha-smooth muscle actin (α-SMA); assay: Inhibition of TGF-β induced expression of alpha-smooth muscle actin in CFSC cells (western blot); conditions: compound at 10 μM, TGF-β (10 ng/mL), 24 hours
How it was run: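 Rat CCl4-treated hepatic stellate (CFSC) cells in serum-free DMEM were given compound at 10 μM plus TGF-β 10 ng/mL for 24 h at 37 °C. α-SMA measured by western blot with β-actin, bands quantified densitometrically. Percent inhibition is the decrease in band intensity versus TGF-β alone.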

Structure (SMILES) | inhibition at 3.3 µM [1] | inhibition at 10 µM [1] | inhibition at 30 µM [1] | inhibition at 3.3 µM (HepG2 (liver cancer)) | inhibition at 10 µM (HepG2 (liver cancer)) | inhibition at 30 µM (HepG2 (liver cancer)) | inhibition at 3.3 µM [2] | inhibition at 10 µM [2] | inhibition at 30 µM [2] | inhibition at 3.3 µM (SW480 (colon cancer)) | inhibition at 10 µM (SW480 (colon cancer)) | inhibition at 30 µM (SW480 (colon cancer)) | inhibition at 3.3 µM (HeLa (cervical cancer)) | inhibition at 10 µM (HeLa (cervical cancer)) | inhibition at 30 µM (HeLa (cervical cancer)) | inhibition at 3.3 µM [3] | inhibition at 10 µM [3] | inhibition at 30 µM [3] | inhibition at 3.3 µM [4] | inhibition at 10 µM [4] | other results
CC1=C(CC(=O)O)c2cc(F)ccc2/C1=C\c1cccc(COc2ccc(C(F)(F)F)cc2)c1 [Compound A21, 2-[(1Z)-5-Fluoro-2-methyl-1-[(3-{[4-(trifluoromethyl)phenoxy]methyl}phenyl)-methylidene]-1H-inden-3-yl]acetic acid] | ≥ 50% | ≥ 50% | ≥ 50% | 30 to 50% | 30 to 50% | ≥ 50% | 30 to 50% | ≥ 50% | ≥ 50% | ≥ 50% | ≥ 50% | ≥ 50% | 30 to 50% | 30 to 50% | ≥ 50% | ≥ 50% | ≥ 50% | ≥ 50% | 30 to 50% | 30 to 50% | inhibition at 30 µM [4]: ≥ 50%; inhibition at 10 µM [5]: < 30%
COc1ccc2c(c1)/C(=C\c1ccc(COc3ccccc3)cc1)C(C)=C2CC(=O)O [Compound A12, (Z)-2-(6-Methoxy-2-methyl-1-(4-(phenoxymethyl)benzylidene)-1H-inden-3-yl)acetic acid] | ≥ 50% | ≥ 50% | ≥ 50% | 30 to 50% | 30 to 50% | ≥ 50% | < 30% | < 30% | ≥ 50% | ≥ 50% | ≥ 50% | ≥ 50% | 30 to 50% | ≥ 50% | ≥ 50% | < 30% | 30 to 50% | ≥ 50% | 30 to 50% | ≥ 50% | inhibition at 30 µM [4]: ≥ 50%; inhibition at 10 µM [5]: ≥ 80%
CC1=C(CC(=O)N(C)O)c2cc(F)ccc2/C1=C\c1cccc(Oc2ccccc2)c1 [Compound B5, (Z)-2-(5-Fluoro-2-methyl-1-(3-phenoxybenzylidene)-1H-inden-3-yl)-N-hydroxy-N-methylacetamide] | 30 to 50% | ≥ 50% | ≥ 50% | ≥ 50% | ≥ 50% | ≥ 50% | ≥ 50% | ≥ 50% | ≥ 50% | 30 to 50% | ≥ 50% | ≥ 50% | < 30% | ≥ 50% | ≥ 50% | < 30% | ≥ 50% | ≥ 50% | 30 to 50% | ≥ 50% | inhibition at 30 µM [4]: ≥ 50%; inhibition at 10 µM [5]: 50 to 80%
COc1ccc2c(c1)/C(=C\c1ccc(CN(C)c3ccccc3)cc1)C(C)=C2CC(=O)O [Compound A13, 2-[(1Z)-6-Methoxy-2-methyl-1-[(4-{[methyl(phenyl)amino]methyl}phenyl)-methylidene]-1H-inden-3-yl]acetic acid] | < 30% | 30 to 50% | ≥ 50% | ≥ 50% | ≥ 50% | ≥ 50% | ≥ 50% | ≥ 50% | ≥ 50% | ≥ 50% | 30 to 50% | ≥ 50% | < 30% | 30 to 50% | ≥ 50% | < 30% | 30 to 50% | ≥ 50% | 30 to 50% | 30 to 50% | inhibition at 30 µM [4]: ≥ 50%; inhibition at 10 µM [5]: ≥ 80%
CC1=C(CC(=O)O)c2c(F)cc(F)cc2/C1=C\c1cccc(Oc2ccccc2)c1 [Compound D21, 2-[(1Z)-4,6-Difluoro-1-(3-(phenoxy)benzylidene)-2-methyl-1H-inden-3-yl]-acetic acid] | ≥ 50% | ≥ 50% | ≥ 50% | 30 to 50% | 30 to 50% | ≥ 50% | < 30% | 30 to 50% | ≥ 50% | 30 to 50% | ≥ 50% | ≥ 50% | < 30% | ≥ 50% | ≥ 50% | ≥ 50% | ≥ 50% | ≥ 50% | 30 to 50% | ≥ 50% | inhibition at 30 µM [4]: ≥ 50%; inhibition at 10 µM [5]: ≥ 80%
CC1=C(CC(=O)O)c2cc(F)cc(F)c2/C1=C\c1ccc(Oc2ccc(F)cc2)cc1 [Compound D15, 2-[(1Z)-5,7-Difluoro-2-methyl-1-({4-[4-fluorophenoxy]phenyl}methylidene)-1H-inden-3-yl]acetic acid] | < 30% | 30 to 50% | ≥ 50% | ≥ 50% | ≥ 50% | ≥ 50% | < 30% | 30 to 50% | ≥ 50% | < 30% | ≥ 50% | ≥ 50% | < 30% | ≥ 50% | ≥ 50% | ≥ 50% | ≥ 50% | ≥ 50% | 30 to 50% | ≥ 50% | inhibition at 30 µM [4]: ≥ 50%; inhibition at 10 µM [5]: ≥ 80%
CC1=C(CC(=O)O)c2cc(F)ccc2/C1=C\c1cccc(COc2ccc(F)cc2F)c1 [Compound A19, 2-[(1Z)-1-({3-[(2,4-Difluorophenoxy)methyl]phenyl}methylidene)-5-fluoro-2-methyl-1H-inden-3-yl]acetic acid] | ≥ 50% | ≥ 50% | ≥ 50% | 30 to 50% | ≥ 50% | ≥ 50% | ≥ 50% | ≥ 50% | ≥ 50% | ≥ 50% | ≥ 50% | ≥ 50% | 30 to 50% | ≥ 50% | ≥ 50% | ≥ 50% | ≥ 50% | ≥ 50% | < 30% | 30 to 50% | inhibition at 30 µM [4]: ≥ 50%; inhibition at 10 µM [5]: ≥ 80%
CC1=C(CC(=O)O)c2cc(F)ccc2/C1=C\c1ccc(CN(C)c2ccccc2)cc1 [Compound A9, 2-[(1Z)-5-Fluoro-2-methyl-1-[(4-{[methyl(phenyl)amino]methyl}phenyl)-methylidene]-1H-inden-3-yl]acetic acid] | ≥ 50% | ≥ 50% | ≥ 50% | < 30% | < 30% | ≥ 50% | < 30% | ≥ 50% | ≥ 50% | ≥ 50% | ≥ 50% | ≥ 50% | < 30% | 30 to 50% | ≥ 50% | 30 to 50% | ≥ 50% | ≥ 50% | ≥ 50% | ≥ 50% | inhibition at 30 µM [4]: ≥ 50%; inhibition at 10 µM [5]: ≥ 80%
